Each block holds one compound with its values, some of them ahead of it.
How the values were obtained:
[1] = Analysis of body weights in AIA model; type: in vivo, Lewis rats; details: for Body weight (g) 8th day / Body weight (g) 11th day / Body weight (g) 15th day / Body weight (g) 18th day: Table 19 study; for Body weight (g) 9th day / Body weight (g) 13th day / Body weight (g) 16th day: Mean ± SD
Description: (§1) Lewis rats (female, five-weeks old) were purchased from Central Lab Animal, Inc. and kept in a controlled environment with a temperature at 22±2° C., a humidity at 44-56% and a light/dark cycle of 12 hours, while being allowed to have a free access to standard diet and water for one week before an examination. Complete Freund's Adjuvant (Chondrex) containing 10 mg/mL of heat killed mycobacteria toxin was fully mixed together, after which […] thereof was taken and subcutaneously injected into each upper tail of the rats to induce arthritis therefrom.
(§2) To administer a drug of compound 374 (SM374) and evaluate an effect thereof, the rats were divided into 11 groups (9, 10 or 11 animals per group) one day before or nine days after inducing arthritis, after which each group was classified according to administered substances (vehicle, compound 374 (SM374) or methotrexate (MTX)) and administration routes (oral administration (P.O.) or intraperitoneal administration (I.P.)) as shown in a following table 13.
(§3) Also, in order to administer a drug of compounds 374, 413, 484, 530 and 652 (SM374, SM413, SM484, SM530 and SM652) and evaluate an effect thereof, the rats were divided into 13 groups (9 or 10 animals per group) eight days after inducing arthritis, and each group was classified according to administered substances (vehicle, SM374, SM413, SM484, SM530, SM652 and MTX) and administration routes (oral or intraperitoneal administration) as shown in a following table 14.
An analysis was made on the body weight of rats dosed with compound 374 (SM 374, once per day) or MIX (once per week or twice per week) from 9th day to 16th day after inducing AIA. […]

[2] = test system: adjuvant-induced arthritis (AIA) model; experiment: Clinical score analysis in adjuvant-induced arthritis (AIA) model; type: in vivo, Lewis rats; set-up: Clinical score 9th day / Clinical score 13th day / Clinical score 16th day / Clinical score 11th day / Clinical score 15th day / Clinical score 18th day: scale not given here; details: for Clinical score 11th day / Clinical score 15th day / Clinical score 18th day: Mean ± SEM; for Clinical score 9th day / Clinical score 13th day / Clinical score 16th day: Mean ± SD
Description: as §1, §2, §3
To identify the efficacy of the inventive composition on preventing or treating arthritis in an AIA model, an analysis was made on the clinical scores of rats dosed with a compound 374 (SM 374, once per day) or MTX (once per week or twice per week) from 9th day to 16th day after inducing arthritis.
Particularly, a degree of swelling, erythema, etc., in each joint of the rats were observed, after which clinical scores were calculated according to a scoring system described in a following table 15, such that the clinical scores on four joints were added up to obtain total scores for each rat (Vishwakarma et al., 2013).
To identify the efficacy of the inventive composition on preventing or treating arthritis in an AIA model, an analysis was made on the clinical scores of rats dosed with compounds 374, 413, 484, 530 and 652 (SM374, SM413, SM484, SM530 and SM652, once per day) or MIX (once per week) from 8th day to 18th day after inducing arthritis.

anti-CCP IgG = experiment: Analysis of anti-CCP IgG in plasma in AIA model (QUANTA Lite CCP3 IgG ELISA); type: in vivo, Lewis rats; details: Mean ± SD
Description: as §1, §2
An effect of compound 374 (SM374) and MTX on preventing or treating arthritis according to administration thereof in combination was evaluated based on analysis of anti-CCP IgG, known as a diagnosis marker for rheumatoid arthritis.
Particularly, blood was collected from each jugular vein of rats dosed with compound 374 (SM374, once per day) and MTX (once or twice per week) from 9th day to 16th day after inducing AIA, after which plasma was isolated therefrom, such that anti-CCP IgG was measured with QUANTA Lite®CCP3 (cyclic citrullinated peptide 3) IgG ELISA kit (INOVA Diagnostics Inc., U.S., catalog no. 704535) according to a protocol offered by a manufacturer thereof, wherein the results thereof are shown in FIG. 5 and Table 20.

[3] = Pharmacokinetic analysis, plasma concentration by LC/MS; type: in vivo; details: rats, MTX 1 mg/kg only
Description: A bioequivalence was evaluated through a pharmacokinetic test on administration of the inventive compound 374 (SM374) and MTX in combination as well as administration of MTX only.
Particularly, after administration of compound 374 (SM374) and MTX, plasma was isolated from blood collected from rats for each time slot, after which organic solvent was added into such plasma to carry out deproteinization and extraction, such that a resulting sample was subjected to quantitative analysis by means of liquid chromatography and mass spectrometer (LC/MS) along with a calibration sample treated under the same conditions, to measure a concentration of compound 374 (SM374) and MTX (FIG. 6 and Table 21) in plasma of the rats as well as each PK parameter (Table 22).

[4] = compound 10 mg/kg once per day P.O.
[5] = Table 17 study, compound 10 mg/kg once per day P.O., 18th day vs vehicle
[6] = Table 17 study, compound 10 mg/kg once per day P.O.
[7] = MTX 3 mg/kg twice per week I.P.
[8] = Table 17 study, MTX 1 mg/kg once per week I.P.
[9] = Table 17 study, MTX 3 mg/kg once per week I.P.

Compound: O=C(NO)c1ccc(CN(C(=O)N2CCOCC2)c2cccc(F)c2)cc1 [SM530]
Body weight (g) 8th day [1, 4]: 151.2 ± 2.6 g
Body weight (g) 11th day [1, 4]: 153.0 ± 2.1 g
Body weight (g) 15th day [1, 4]: 161.1 ± 2.1 g
Body weight (g) 18th day [1, 4]: 159.2 ± 4.5 g
Rate of reduction in clinical scores (%) [2, 5]: 31.1%
Clinical score 11th day [2, 6]: 0.0 ± 0.0
Clinical score 15th day [2, 6]: 1.2 ± 0.5
Clinical score 18th day [2, 6]: 4.2 ± 1.6

AUC(0-inf) ([3]; rat, plasma): 1510 ± 231 ng·h/mL
Cmax ([3]; rat, plasma): 1300 ± 97.3 ng/mL
Tmax ([3]; rat, plasma): 30 min
half-life ([3]; rat, plasma): 54 min
AUC(0-t) ([3]; rat, plasma, read-out: AUC0→8h): 1500 ± 231 ng·h/mL
concentration at 0.5 hr ([3]; rat, plasma, time 0.5 hr): 1300 ± 97.3 ng/mL
concentration at 1 hr ([3]; rat, plasma, time 1 hr): 747 ± 129 ng/mL
concentration at 2 hr ([3]; rat, plasma, time 2 hr): 245 ± 108 ng/mL
concentration at 4 hr ([3]; rat, plasma, time 4 hr): 24.4 ± 9.7 ng/mL
concentration at 8 hr ([3]; rat, plasma, time 8 hr): 3 ± 0.3 ng/mL
Plasma concentration (ng/mL) ([3]; time 0 hr): BLOQ
Compound: CN(Cc1cnc2nc(N)nc(N)c2n1)c1ccc(C(=O)N[C@@H](CCC(=O)O)C(=O)O)cc1 [MTX, Methotrexate]
Body weight (g) 9th day ([1]; MTX 1 mg/kg once per week I.P.): 157.3 ± 11.9 g
Body weight (g) 13th day ([1]; MTX 1 mg/kg once per week I.P.): 160.6 ± 4.2 g
Body weight (g) 16th day ([1]; MTX 1 mg/kg once per week I.P.): 153.8 ± 7.9 g
Body weight (g) 9th day [1, 7]: 157.2 ± 7.3 g
Body weight (g) 13th day [1, 7]: 159.6 ± 5.7 g
Body weight (g) 16th day [1, 7]: 157.6 ± 5.7 g
Body weight (g) 8th day ([1]; MTX 1 mg/kg once per week I.P.): 151.2 ± 2.4 g
Body weight (g) 11th day ([1]; MTX 1 mg/kg once per week I.P.): 152.1 ± 2.3 g
Body weight (g) 15th day ([1]; MTX 1 mg/kg once per week I.P.): 156.9 ± 2.8 g
Body weight (g) 18th day ([1]; MTX 1 mg/kg once per week I.P.): 155.0 ± 3.9 g
Body weight (g) 8th day ([1]; MTX 3 mg/kg once per week I.P.): 151.2 ± 2.4 g
Body weight (g) 11th day ([1]; MTX 3 mg/kg once per week I.P.): 151.6 ± 3.8 g
Body weight (g) 15th day ([1]; MTX 3 mg/kg once per week I.P.): 160.0 ± 2.9 g
Body weight (g) 18th day ([1]; MTX 3 mg/kg once per week I.P.): 164.7 ± 2.5 g
Rate of reduction in clinical scores (%) ([2]; MTX 1 mg/kg once per week I.P., 16th day vs vehicle): 14.5%
Clinical score 9th day ([2]; MTX 1 mg/kg once per week I.P.): 0.0 ± 0.0
Clinical score 13th day ([2]; MTX 1 mg/kg once per week I.P.): 2.2 ± 1.2
Clinical score 16th day ([2]; MTX 1 mg/kg once per week I.P.): 5.9 ± 2.8
Rate of reduction in clinical scores (%) ([2]; MTX 3 mg/kg twice per week I.P., 16th day vs vehicle): 65.2%
Clinical score 9th day [2, 7]: 0.0 ± 0.0
Clinical score 13th day [2, 7]: 1.1 ± 1.6
Clinical score 16th day [2, 7]: 2.4 ± 3.0
Rate of reduction in clinical scores (%) ([2]; Table 17 study, MTX 1 mg/kg once per week I.P., 18th day vs vehicle): 23.0%
Clinical score 11th day [2, 8]: 0.0 ± 0.0
Clinical score 15th day [2, 8]: 1.3 ± 0.9
Clinical score 18th day [2, 8]: 4.7 ± 1.9
Rate of reduction in clinical scores (%) ([2]; Table 17 study, MTX 3 mg/kg once per week I.P., 18th day vs vehicle): 96.7%
Clinical score 11th day [2, 9]: 0.0 ± 0.0
Clinical score 15th day [2, 9]: 0.0 ± 0.0
Clinical score 18th day [2, 9]: 0.2 ± 0.2 #
Anti-CCP IgG (RU) (anti-CCP IgG; MTX 1 mg/kg): 208.0 ± 24.3 RU
Anti-CCP IgG (RU) (anti-CCP IgG; MTX 3 mg/kg): 104.6 ± 56.7 RU

Compound: COc1cccc(N(Cc2ccc(C(=O)NO)cc2)C(=O)N2CCOCC2)c1 [SM484, N-(4-(hydroxycarbamoyl)benzyl)-N-(3-methoxyphenyl)morpholine-4-carboxamide]
Body weight (g) 8th day [1, 4]: 151.4 ± 2.5 g
Body weight (g) 11th day [1, 4]: 154.7 ± 2.1 g
Body weight (g) 15th day [1, 4]: 160.7 ± 3.3 g
Body weight (g) 18th day [1, 4]: 158.3 ± 4.6 g
Rate of reduction in clinical scores (%) [2, 5]: 19.7%
Clinical score 11th day [2, 6]: 0.0 ± 0.0
Clinical score 15th day [2, 6]: 2.9 ± 1.3
Clinical score 18th day [2, 6]: 4.9 ± 1.7

— patent US20220296599A1, “Pharmaceutical composition comprising histone deacetylase inhibitor and methotrexate” (Chong Kun Dang Pharmaceutical Corp., priority 2018, published 2022)
